# Molecular target: T1, NFκB (p50 and p65 subunits) (Homo sapiens, UniProt P19838+Q04206)
# T1 construct: endogenous in cells; control or TNFα-treated
# Test: TransAM NFκB p65 and p50 transcription factor assay (oligonucleotide binding)
# Assay type: cell-based
# Source text: The left set of bars represents cells treated with carrier control, the middle set represents cells treated with SNX2, and the right set represents cells treated with a known inhibitor of NFκB binding (TPCK).
# We also tested if these compounds could act as the inhibitors of NFκB, by measuring cellular levels of p50 or p65 subunits binding oligonucleotides containing NFκB consensus binding site, using ACTIVE MOTIF TransAM™ NFκB p65 Chemi and NFκB p50 Chemi Transcription Factor Assay Kits.
# T1 sequence (P19838 1-433 limits assumed): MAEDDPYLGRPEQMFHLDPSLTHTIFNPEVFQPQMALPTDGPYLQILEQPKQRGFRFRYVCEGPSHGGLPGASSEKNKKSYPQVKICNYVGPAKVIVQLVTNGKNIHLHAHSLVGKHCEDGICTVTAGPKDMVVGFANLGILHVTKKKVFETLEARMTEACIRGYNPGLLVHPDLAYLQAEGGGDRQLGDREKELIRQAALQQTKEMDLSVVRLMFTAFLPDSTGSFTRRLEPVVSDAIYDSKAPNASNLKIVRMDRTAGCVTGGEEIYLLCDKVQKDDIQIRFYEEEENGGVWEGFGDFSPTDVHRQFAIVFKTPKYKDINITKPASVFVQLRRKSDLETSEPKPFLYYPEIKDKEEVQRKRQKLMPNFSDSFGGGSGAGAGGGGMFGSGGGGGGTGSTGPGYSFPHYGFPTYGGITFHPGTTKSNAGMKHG
# T1 sequence (Q04206 whole entry): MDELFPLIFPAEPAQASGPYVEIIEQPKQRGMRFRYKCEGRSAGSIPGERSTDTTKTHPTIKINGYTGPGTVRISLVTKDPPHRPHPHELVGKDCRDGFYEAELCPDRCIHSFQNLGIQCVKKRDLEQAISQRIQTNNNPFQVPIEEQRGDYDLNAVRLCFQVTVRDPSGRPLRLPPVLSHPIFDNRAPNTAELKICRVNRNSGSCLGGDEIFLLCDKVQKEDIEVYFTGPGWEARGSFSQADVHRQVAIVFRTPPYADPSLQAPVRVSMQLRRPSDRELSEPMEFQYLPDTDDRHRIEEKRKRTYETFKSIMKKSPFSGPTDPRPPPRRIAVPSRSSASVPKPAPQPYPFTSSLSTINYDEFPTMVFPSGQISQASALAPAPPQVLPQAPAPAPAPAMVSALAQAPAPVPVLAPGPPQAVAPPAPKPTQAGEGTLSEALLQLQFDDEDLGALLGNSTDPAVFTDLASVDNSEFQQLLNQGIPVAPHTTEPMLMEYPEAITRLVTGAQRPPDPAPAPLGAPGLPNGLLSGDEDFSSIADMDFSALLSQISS
smiles,measurement,setting,value
Cc1ccc(S(=O)(=O)N[C@@H](Cc2ccccc2)C(=O)CCl)cc1 [TPCK],TNFα-induced NFκB activity,TNFα-treated cells,completely blocks
same,basal NFκB activity,control cells,completely blocks
